Experimental data as given in patent US20240293422A1, “SHP2 AND CDK4/6 INHIBITORS COMBINATION THERAPIES FOR THE TREATMENT OF CANCER” (Erasca, Inc., priority 2021, published 2024).

Columns and labels:
[1] = tested on: KRAS^G12S mutant NSCLC xenograft model A549; experiment: Antitumor efficacy in A549 xenograft mouse model; format: in vivo, Female Balb/c nude mice; settings: 28 days
Procedure: Reagents: The vehicle/control article, 100 mM acetic acid in deionized water, with pH adjustment to 4.8-5.0, was prepared and stored under ambient conditions throughout the 28-day administration in mice. The test article compound of Formula I was freshly prepared in vehicle of 100 mM acetic buffer weekly and stored under ambient conditions. The combination agent palbociclib was freshly prepared in vehicle of 50 mM Sodium Lactate Buffer, pH 3.8-4.0 weekly and stored at 2-8° C.
Animals: Female Balb/c nude mice were purchased from the Beijing Vital River Laboratory Animal Technology Co., Ltd. Mice were hosted at special pathogen-free (SPF) environment of vivarium facility and acclimated to their new environment for at least 3 days prior to initiation of any experiments. Mice were between 6-8 weeks of age at the time of implantation.
Preparation of xenograft model: A549 was a human lung cancer cell line that harbored a KRASG12S mutation. The A549 cell line was purchased from the American Type Culture Collection (ATCC® CCL-185™). A549 cells were cultured in medium containing RPMI1640 plus 10% Fetal Bovine Serum (FBS) at 37° C. in an atmosphere of 5% CO2 in air. The medium was renewed every 2 to 3 days and tumor cells were routinely sub-cultured at a confluence of 80-90% by trypsin-EDTA. The cells growing in an exponential growth phase were harvested and counted for inoculation.
A549 tumor cells were implanted into mice subcutaneously. Briefly, 200 μL cell suspensions containing 5×10^6 tumor cells mixed with 50% Matrigel were subcutaneously implanted into the right flank of mouse using a syringe. Animal health and tumor growth were monitored daily. Tumor volume was measured twice a week by caliper when tumors were palpable and measurable. When tumor volumes reached a mean of 200 mm^3 (range of 152-259 mm^3), tumor-bearing mice were randomized into different groups with 8 mice in each group. The randomization date was denoted as treatment day 0.
Treatment: Treatment started on the day of randomization. The treatment start day was denoted as treatment day 0. Mice were dosed by oral administration of vehicle control solution, the compound of Formula I at 10 mg/kg/dose BID, the compound of Formula I at 30 mg/kg QD, or palbociclib at 25 mg/kg QD monotherapy treatment groups. Two additional groups received combination treatment of the compound of Formula I and palbociclib, one dosing the compound of Formula I at 10 mg/kg/dose BID with palbociclib at 25 mg/kg QD and the other dosing the compound of Formula I at 30 mg/kg QD with palbociclib at 25 mg/kg QD. The dosing volume for each compound was 5 mL/kg and interval of BID regimen was 8 hours. Palbociclib was dosed at one-hour post the compound of Formula I QD or first BID dose in combination groups. […] Per this practice, mice in the compound of Formula I at 10 mg/kg/dose BID monotherapy group and in the compound of Formula I at 10 mg/kg/dose BID with palbociclib at 25 mg/kg QD combination group were supplied with DietGel food starting on treatment day 20 and continuing through the remaining study period. Mice in the compound of Formula I at 30 mg/kg QD monotherapy group were supplied with DietGel food starting on treatment day 17 and continuing through the remaining study period. The study was terminated on treatment day 28 as being defined in the study protocol.
Measurements and calculations: Conditions of animal health and clinical signs of toxicity were monitored daily. Subcutaneous tumor volumes and mouse body weights were measured twice a week by caliper and balance, respectively. Tumor volume, percent of tumor growth inhibition (% TGI), percent of tumor regression, percent of body weight change (% BWC), and treatment related body weight loss (% trBWL) were calculated based on following formulas: […]
Percent of tumor growth inhibition (% TGI) • vii.
[formula] • viii. TVTi was the group mean tumor volume (TV) of treatment group at last treatment day • ix. […]

[2] = Body weight change and tolerability in A549 xenograft study; format: in vivo, Female Balb/c nude mice; settings: for treatment related body weight loss (trBWL) category: palbociclib 25 mg/kg QD, Formula I 10 mg/kg BID and 30 mg/kg QD, both combinations with palbociclib 25 mg/kg QD
Procedure: Treatment: Treatment started on the day of randomization. The treatment start day was denoted as treatment day 0. Mice were dosed by oral administration of vehicle control solution, the compound of Formula I at 10 mg/kg/dose BID, the compound of Formula I at 30 mg/kg QD, or palbociclib at 25 mg/kg QD monotherapy treatment groups. Two additional groups received combination treatment of the compound of Formula I and palbociclib, one dosing the compound of Formula I at 10 mg/kg/dose BID with palbociclib at 25 mg/kg QD and the other dosing the compound of Formula I at 30 mg/kg QD with palbociclib at 25 mg/kg QD. The dosing volume for each compound was 5 mL/kg and interval of BID regimen was 8 hours. Palbociclib was dosed at one-hour post the compound of Formula I QD or first BID dose in combination groups. […] The study was terminated on treatment day 28 as being defined in the study protocol.
Measurements and calculations: Conditions of animal health and clinical signs of toxicity were monitored daily. Subcutaneous tumor volumes and mouse body weights were measured twice a week by caliper and balance, respectively. Tumor volume, percent of tumor growth inhibition (% TGI), percent of tumor regression, percent of body weight change (% BWC), and treatment related body weight loss (% trBWL) were calculated based on following formulas:
[formula] [formula] [formula] • i. BWdx was body weight group mean at treatment day x • ii. BWd0 was body weight group mean at treatment day 0
Percentage of treatment related body weight loss at treatment day x (% trBWLdx) was calculated based on the following: • iii. If % BWC in the treatment group was positive at treatment day x: % trBWLdx=0% • iv. If % BWC was negative in both the control and treatment groups at treatment day • x:
Treatment related body weight loss (trBWL) was categorized based on the following criteria: x≤5% was no loss, 5%<x≤10% was mild loss, 10%<x≤20% was moderate loss and x>20% was severe loss.

[3] = tested on: KRAS^G12V mutated SW620 cells; experiment: Clonogenic assay (colony formation), SW620; format: cell-based; settings: for colony formation (in words): SW620, 4000 cells per well, 14 days, crystal violet, various concentrations
Procedure: (§1) Cells and Reagents: The cell lines were obtained from ATCC (SW620 #CCL-227, A549 #CCL-185 and NCI-H441 #HTB-174). The cell lines, LS180 (ECACC #87021202) and Gp2D (ECACC #95090714). The cell line, CAL 27 was cultured in DMEM (Gibco #). SCC-4, SCC-15, SCC-25, SCC-9 cell lines were cultured in a 1:1 mixture of DMEM and Ham's F12 medium containing 1.2 g/L sodium bicarbonate, 2.5 mM L-glutamine, 15 mM HEPES and 0.5 mM sodium pyruvate supplemented with 400 ng/ml hydrocortisone, 90%; fetal bovine serum, 10% (Hyclone #SH-30071.03) and Penicillin/Streptomycin (Thermo Fisher #15070-063). The cells were maintained at 37° C./5% CO2.
(§2) Clonogenic assay: The cells were plated onto 6-well plates in 2 ml cell culture medium. The cells were incubated overnight and treated with various concentration of the compound of Formula I and Palbociclib. After 7 days incubation, the medium was replaced with fresh medium, cells were treated again with same concentration of the compound of Formula I and Palbociclib and incubated for additional 7 days. After 14 days of total incubation, the cells were washed with PBS twice and fixed 30 mins with 4% formaldehyde. The cells were washed twice with PBS and incubated with 0.1% crystal violet for 60 mins. After the crystal violet staining, the cells were washed five times with water and let it dry at room temperature. After the plates were dried, the crystal staining was de-stained with 1 ml of 10% acetic acid and absorbance was measured at 560 nm.
(§3) Cell lines from each of KRAS^G12D (LS513 and Gp2D), KRAS^G12S (A549) and KRAS^G12V (NCI-H441 and SW620) mutations were split onto 6-well plates in 2 ml cell culture medium. The cells were incubated overnight and treated with various concentration of the compound of Formula I and Palbociclib and assayed using the Clonogenic Assay protocol described above.
(§4) The NCI-H441 and SW620 cells were split onto 6 well plates (8000 and 4000 calls per well respectively). After overnight incubation, the cells were treated with the compound of Formula I alone and treated in combination with palbociclib and colony formation was determined as mentioned in method. […] (FIGS. 2A&3A). […] There was a pronounced inhibition of colony formation (about 80%) observed with combination of the compound of Formula I and palbociclib treatment. […] There was a pronounced inhibition of colony formation (about 60%) observed with combination of the compound of Formula I and palbociclib treatment.

[4] = tested on: KRAS^G12D mutated LS-180 cells; experiment: Clonogenic assay (colony formation), LS-180; format: cell-based; settings: for colony formation (in words): LS-180, 4000 cells per well, 14 days, crystal violet, various concentrations
Procedure: as §1, §2, §3
(§5) The LS-180 and Gp2D cells were split onto 6 well plates (4000 and 8000 calls per well respectively). After overnight incubation, the cells were treated with the compound of Formula I alone and treated in combination with palbociclib and colony formation was determined as mentioned in method. […] (FIGS. 4A&5A). […] There was a pronounced inhibition of colony formation (about 50%) observed with combination of the compound of Formula I and palbocilib treatment. […] There was a pronounced inhibition of colony formation (about 50%) observed with combination of the compound of Formula I and palbocilib treatment.

[5] = tested on: KRAS^G12V mutated NCI-H441 cells; experiment: Clonogenic assay (colony formation), NCI-H441; format: cell-based, human; settings: for colony formation (in words): NCI-H441, 8000 cells per well, 14 days, crystal violet, various concentrations
Procedure: as §1, §2, §3, §4

[6] = tested on: KRAS^G12D mutated Gp2D cells; experiment: Clonogenic assay (colony formation), Gp2D; format: cell-based, human; settings: for colony formation (in words): 8000 cells per well, 14 days, crystal violet, various concentrations
Procedure: as §1, §2, §3, §5

[7] = tested on: KRAS^G12S mutated A549 cells; experiment: Clonogenic assay (colony formation), A549; format: cell-based, human; settings: for colony formation (in words): A549, 2000 cells per well, 14 days, crystal violet, various concentrations; for reduction of colony formation: A549, quantification FIG. 1B, each agent alone or combination, concentrations not given
Procedure: as §1, §2, §3
The A549 cells were split onto 6 well plates (2000 cells per well). After overnight incubation, the cells were treated with the compound of Formula I alone and treated in combination with palbociclib and colony formation was determined as mentioned in method. […] (FIG. 1A).

CC(=O)c1c(C)c2cnc(Nc3ccc(N4CCNCC4)cn3)nc2n(C2CCCC2)c1=O [Palbociclib, reference compound]
% TGI (last treatment day) ([1]; palbociclib 25 mg/kg QD oral): 15%
% Tumor regression (last treatment day) ([1]; palbociclib 25 mg/kg QD oral): 0%
maximum trBWL ([2]; 28 days oral, palbociclib 25 mg/kg QD monotherapy): 400
treatment related body weight loss (trBWL) category ([2]; 28 days oral): no trBWL
inhibition at 0.1 µM ([3]; Homo sapiens, SW-620, SW620, palbociclib 100 nM alone, FIG. 3B): ~40%
colony formation (in words) [3]: inhibition of colony formation dose dependently
inhibition at 0.25 µM ([4]; Homo sapiens, LS180, LS-180, palbociclib 250 nM alone, FIG. 4B): ~40%
colony formation (in words) [4]: inhibition of colony formation dose dependently
inhibition at 0.1 µM ([5]; Homo sapiens, NCI-H441, palbociclib 100 nM alone, FIG. 2B): ~60%
colony formation (in words) [5]: inhibition of colony formation dose dependently
colony formation (in words) [6]: inhibition of colony formation dose dependently
inhibition at 0.25 µM ([6]; Homo sapiens, palbociclib 250 nM alone, FIG. 5B): ~40%
colony formation (in words) [7]: inhibition of colony formation dose dependently
reduction of colony formation [7]: about 10%

COCOC[C@H]1C[C@H]2COc3c(Sc4cnc(N5CCC6(CC5)CO[C@@H](C)[C@H]6N)c(CO)n4)ccnc3N2C1 [compound of Formula I, (3-((3S,4S)-4-amino-3-methyl-2-oxa-8-azaspiro[4.5]decan-8-yl)-6-(((6aS,8S)-8-((methoxymethoxy)methyl)-6a,7,8,9-tetrahydro-6H-pyrido[3,2-b]pyrrolo[1,2-d] [1,4]oxazin-4-yl)thio)pyrazin-2-yl)methanol]
% TGI (last treatment day) ([1]; Formula I 10 mg/kg BID oral): 52%
% Tumor regression (last treatment day) ([1]; Formula I 10 mg/kg BID oral): 0%
% TGI (last treatment day) ([1]; Formula I 30 mg/kg QD oral): 70%
% Tumor regression (last treatment day) ([1]; Formula I 30 mg/kg QD oral): 0%
clinical signs of toxicity or mortality ([2]; 28-day treatment period, both Formula I monotherapy groups and both combination groups): no clinical signs of toxicity or mortality were observed
treatment related body weight loss (trBWL) category ([2]; 28 days oral): mild trBWL
colony formation (in words) [3]: inhibited the colony formation minimally
colony formation (treatment showed about x% of colony formation) ([3]; SW620, Formula I 250 nM alone, FIG. 3B): about 10%
colony formation on increasing the concentration of Formula I ([3]; SW620, single agent and combination, FIG. 3B): robust inhibition of colony formation
colony formation (in words) [4]: inhibited the colony formation minimally
colony formation (treatment showed about x% of colony formation) ([4]; LS-180, Formula I 250 nM alone, FIG. 4B): about 10%
colony formation (in words) [5]: inhibited the colony formation minimally
colony formation on increasing the concentration of Formula I ([5]; NCI-H441, FIG. 2B): robust inhibition of colony formation
colony formation (treatment showed about x% of colony formation) ([5]; NCI-H441, Formula I 250 nM alone, FIG. 2B): about 40%
colony formation (in words) [6]: inhibited the colony formation minimally
colony formation (treatment showed about x% of colony formation) ([6]; Formula I 250 nM alone, FIG. 5B): about 20%
colony formation (in words) [7]: inhibited the colony formation minimally
reduction of colony formation [7]: about 10%
